Assay results reported in ChEMBL document CHEMBL4387717, “Structure guided drug design to develop kallikrein 5 inhibitors to treat Netherton syndrome” (Bioorg Med Chem Lett, 2019).
≈ marks a conversion by molar mass, not a printed value.

Legend:
Kallikrein-8 = target: T1, Kallikrein-8 (Homo sapiens, UniProt O60259); assay: Inhibition of recombinant C-terminal 10-His tagged human KLK8 (Gln29 to Gly260 residues) expressed in mouse NS0 cells using BOC-VPR-AMC as substrate after 40 mins by fluorescence intensity assay
T1 sequence (O60259 whole entry): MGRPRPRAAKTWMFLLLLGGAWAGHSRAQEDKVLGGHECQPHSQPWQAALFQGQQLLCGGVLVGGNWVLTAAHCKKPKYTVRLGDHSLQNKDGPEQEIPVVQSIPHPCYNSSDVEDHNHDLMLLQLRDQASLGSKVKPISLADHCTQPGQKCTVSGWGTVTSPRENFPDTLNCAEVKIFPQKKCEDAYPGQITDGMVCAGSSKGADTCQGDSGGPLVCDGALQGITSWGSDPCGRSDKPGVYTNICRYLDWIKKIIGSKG

Homo sapiens [1] = species: Homo sapiens; assay: Selectivity index, ratio of compound effect for inhibition of human neutrophil elastase to compound effect for inhibition of recombinant 6His-Q-FLAG tagged human KLK5 expressed in baculovirus infected insect Sf9 cells
Coagulation factor X = Coagulation factor X (Homo sapiens, UniProt P00742); assay: Inhibition of recombinant C-terminal 10His-tagged human coagulation factor 10a (Leu24 to Lys488 residues) expressed in baculovirus infected Sf9 insect cells using Mca-RPKPVE-Nval-WRK(Dnp)-NH2 as substrate after 40 mins by fluorescence intensity assay
[2] = target: Urokinase-type plasminogen activator (Homo sapiens, UniProt P00749); assay: Inhibition of recombinant C-terminal 10His-tagged human urokinase (Met1 to Leu431 residues) expressed in mouse NS0 cells using Z-GGR-AMC as substrate after 40 mins by fluorescence intensity assay
[3] = Half life in pH 4 to 8 buffer at 0.05 mg/ml over 24 hrs; assay type: physicochemical
Homo sapiens [4] = species: Homo sapiens; assay: Selectivity index, ratio of compound effect for inhibition of recombinant C-terminal 10-His tagged human thrombin (Met1 to Glu622 residues) expressed in mouse NS0 cells to compound effect for inhibition of recombinant 6His-Q-FLAG tagged human KLK5 expressed in baculovirus infected insect Sf9 cells
Homo sapiens [5] = species: Homo sapiens; assay: Selectivity index, ratio of compound effect for inhibition of recombinant C-terminal 6-His tagged human KLKB1 (Gly20 to Ala638 residues) expressed in mouse NS0 cells to compound effect for inhibition of recombinant 6His-Q-FLAG tagged human KLK5 expressed in baculovirus infected insect Sf9 cells
[6] = Solubility of the compound in water at 24 hrs; assay type: physicochemical
Homo sapiens [7] = species: Homo sapiens; assay: Selectivity index, ratio of compound effect for inhibition of recombinant human N-terminal met-His6-tagged matriptase catalytic domain (Gly596 to Val855 residues) expressed in Escherichia coli to compound effect for inhibition of recombinant 6His-Q-FLAG tagged human KLK5 expressed in baculovirus infected insect Sf9 cells
Keratinocyte [8] = assay: Induction of irritation in human epidermal keratinocytes assessed as effect on IL1alpha levels over 24 hrs; assay type: cell-based
Plasma kallikrein = Plasma kallikrein (Homo sapiens, UniProt P03952); assay: Inhibition of recombinant C-terminal 6-His tagged human KLKB1 (Gly20 to Ala638 residues) expressed in mouse NS0 cells using P-F-R-AMC as substrate after 40 mins by fluorescence intensity assay
Neutrophil elastase = target: T2, Neutrophil elastase (Homo sapiens, UniProt P08246); assay: Inhibition of human neutrophil elastase using MeOSuc-AAPV-AMC as substrate after 40 mins by fluorescence intensity assay
T2 sequence (P08246 whole entry): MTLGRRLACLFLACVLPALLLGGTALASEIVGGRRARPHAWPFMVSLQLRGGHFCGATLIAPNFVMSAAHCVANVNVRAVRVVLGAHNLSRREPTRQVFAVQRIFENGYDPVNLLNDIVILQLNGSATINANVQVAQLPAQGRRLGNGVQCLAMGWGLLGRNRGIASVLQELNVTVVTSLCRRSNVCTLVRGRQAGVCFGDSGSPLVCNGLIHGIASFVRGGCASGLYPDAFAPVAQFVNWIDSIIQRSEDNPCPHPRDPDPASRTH

Keratinocyte [9] = assay: Induction of irritation in human epidermal keratinocytes assessed as effect on cell viability over 24 hrs; assay type: cell-based
[10] = Half life in pH 6 buffer at 0.05 mg/ml under H2O2-induced oxidative condition over 24 hrs; assay type: physicochemical; conditions: buffer with H2O2, pH 6

With N=C(N)c1ccc(NCc2nc(-c3ccccc3)c[nH]2)cc1OCc1cccnc1 the IC50 (Kallikrein-8) was 794 nM, the Selectivity Index (Homo sapiens [1]) was > 100 and the IC50 (Coagulation factor X) was > 100 µM. For the same molecule, the IC50 [2] was > 100 µM, the half-life at 0.05 mg/ml [3] was > 41.7 days and the Selectivity Index (Homo sapiens [4]) was > 100. For the same molecule, the Selectivity Index (Homo sapiens [5]) was > 100, the solubility at 24 h [6] was 1000 µg/mL (≈ 2510 µM) and the Selectivity Index (Homo sapiens [7]) was > 100. The Activity (Keratinocyte [8]) was “Non-Toxic”, the IC50 (Plasma kallikrein) was 6.31 µM and the IC50 (Neutrophil elastase) was > 100 µM. The Activity (Keratinocyte [9]) was “Non-Toxic” and the half-life at 0.05 mg/ml [10] was 1670 min.
